Measurements as given in patent US4100153A, “(D-Trp^5)-somatostatin and analogues thereof” (American Home Products Corporation, priority 1977, dated 1978).
Bridge positions count the residues as written; N and C are the ends. Square brackets hold non-standard residues; d marks the D form. Peptide text beside a SMILES is read from it.

Key:
Format in all cases: in vivo
growth hormone = experiment: Arginine-stimulated hormone secretion in Nembutal-treated rats, radioimmunoassay of growth hormone
Description: (§1) Albino male rats were administered Nembutal intraperitoneally at a dose of 50 milligrams per kilogram. Fifteen minutes later a subcutaneous injection of the test compound or physiological saline was administered. Ten minutes later 0.5 milliliters of arginine (300 milligrams per milliliter, pH 7.2) is injected into the heart. Five minutes after receipt of the arginine the rats are decapitated and blood is collected into trasylol-EDTA. An appropriate aliquot was assayed for growth hormone, insulin, and glucagon by radioimmunoassay.

insulin = experiment: Arginine-stimulated hormone secretion in Nembutal-treated rats, radioimmunoassay of insulin
Description: as §1

glucagon = experiment: Arginine-stimulated hormone secretion in Nembutal-treated rats, radioimmunoassay of glucagon
Description: as §1

growth hormone secretion = experiment: Effect on growth hormone secretion over time in rats treated with Nembutal, plasma GH by radioimmunoassay; details: for Growth Hormone: dose 1,000 μg/kg
Description: (D-Trp^5, D-Trp^8)-Somatostatin was also tested for its effect on growth hormone secretion in rats treated with Nembutal after 1, 2, 4, 5, 6, and 8 hours. Blood samples were obtained by cardiac puncture and plasma separated for radio immunoassay of GH concentration.

Work on C[C@H](N)C(=O)NCC(=O)N[C@H]1CSSC[C@@H](C(=O)O)NC(=O)[C@H](CO)NC(=O)[C@H]([C@@H](C)O)NC(=O)[C@H](Cc2ccccc2)NC(=O)[C@H]([C@@H](C)O)NC(=O)[C@H](CCCCN)NC(=O)[C@@H](Cc2c[nH]c3ccccc23)NC(=O)[C@H](Cc2ccccc2)NC(=O)[C@H](Cc2ccccc2)NC(=O)[C@@H](Cc2c[nH]c3ccccc23)NC(=O)[C@H](CCCCN)NC1=O [(D-Trp^5, D-Trp^8)-Somatostatin, L-alanylglycyl-L-cysteinyl-L-lysyl-D-tryptophyl-L-phenylalanyl-L-phenylalanyl-D-tryptophyl-L-lysyl-L-threonyl-L-phenylalanyl-L-threonyl-L-seryl-L-cysteine cyclic (3→14)-disulfide, triacetate] (H-AGCK[dW]FF[dW]KTFTSC-OH; disulfide 3-14) yielded a GH (growth hormone; dose 10 μg/kg subcutaneous, control 133 ± 32) of 40 ± 6 ng/mL, a GH (growth hormone; dose 100 μg/kg subcutaneous, control 133 ± 32) of 25 ± 5 ng/mL and a GH (growth hormone; dose 1,000 μg/kg subcutaneous, blood 15 min after dosing, 5 min after arginine, control 259 ± 29) of 52 ± 5 ng/mL. For the same molecule, the “Effect on secretion of growth hormone (in words)” value (growth hormone; dose of 10 or 100 μg/kg) was “effective agent for reducing secretion of growth hormone”, the “Effect on release of growth hormone (in words)” value (growth hormone; higher dose (1 mg/kg)) was “inhibited release of growth hormone” and the Insulin (insulin; dose 10 μg/kg subcutaneous, control 348 ± 36) was 183 ± 12 μU/ml. For the same molecule, the Insulin (insulin; dose 100 μg/kg subcutaneous, control 348 ± 36) was 105 ± 9 μU/ml, the Insulin (insulin; dose 1,000 μg/kg subcutaneous, control 314 ± 46) was 33 ± 6 μU/ml and the “Effect on secretion of insulin (in words)” value (insulin; dose of 10 or 100 μg/kg) was “effective agent for reducing secretion of growth hormone and insulin”. The “Effect on release of insulin (in words)” value (insulin; higher dose (1 mg/kg)) was “inhibited release of growth hormone, insulin”, the Glucagon (glucagon; dose 10 μg/kg subcutaneous, control 44 ± 8, marked * not significant) was 36 ± 5 pg/mL and the Glucagon (glucagon; dose 100 μg/kg subcutaneous, control 44 ± 8, marked * not significant) was 31 ± 5 pg/mL. For the same molecule, the Glucagon (glucagon; dose 1,000 μg/kg subcutaneous, control 46 ± 7) was 17 ± 4 pg/mL, the “Effect on glucagon levels (in words)” value (glucagon; dose of 10 or 100 μg/kg) was “without materially affecting glucagon levels” and the “Effect on release of glucagon (in words)” value (glucagon; higher dose (1 mg/kg)) was “inhibited release of growth hormone, insulin, and glucagon”. For the same molecule, the “Duration of inhibition of growth-hormone release (in words)” value (growth hormone secretion; 1,000 μg/kg, 1 to 8 hours) was “long-acting inhibition of growth-hormone release”, the “Growth Hormone” value (growth hormone secretion; time 1 hr, control 61 ± 14) was 5 ± 2 ng/mL and the “Growth Hormone” value (growth hormone secretion; time 2 hrs, control 227 ± 44) was 16 ± 2 ng/mL. For the same molecule, the “Growth Hormone” value (growth hormone secretion; time 4 hrs, control 84 ± 13) was 32 ± 10 ng/mL, the “Growth Hormone” value (growth hormone secretion; time 5 hrs, control 73 ± 11) was 16 ± 3 ng/mL and the “Growth Hormone” value (growth hormone secretion; time 6 hrs, control 156 ± 42) was 22 ± 2 ng/mL. The “Growth Hormone” value (growth hormone secretion; time 8 hrs, control 55 ± 22) was 31 ± 11 ng/mL.
